The text below walks through data of a melting point compilation (Tetko et al.; mined from patent text by program, amines drawn as free bases though some values may be those of a salt).

Bounds are passed on as bounds.

`CCOC(=O)CCc1c(C)nc(CC)n(Cc2ccc(-c3ccccc3-c3nnn[nH]3)cc2)c1=O` displayed a melting point of 76 to 80 °C.

Compound `COc1cc(N)c2nccc(C)c2c1F` showed a melting point of 126 to 128 °C.

`Cc1sc(C2=NOC(c3cc(Cl)cc(Cl)c3)(C(F)(F)F)C2)cc1C(=O)NCC(=O)NCC#N` (configuration not stated): the melting point fell in the range of 158 to 161 °C.

For the compound `Oc1c(Cl)cc(-c2cnn3c(O)ncnc23)cc1Cl`, the melting point was over 300 °C.

Take `Cc1ccc(C(=O)NC(NC(=S)Nc2cccc(F)c2)C(F)(F)F)cc1` (configuration not stated): the melting point fell in the range of 205 to 206 °C.

`Cc1cc(C)cc(Sc2c(C)c[nH]c(=O)c2N)c1` yielded a melting point of 208 to 210 °C.

`CCOC(=O)NNC(C)=S` displayed a melting point of 54 to 57.5 °C.

In turn, `COc1cc(C(C)=O)ccc1OCCCN1CCC(C(O)(c2ccc(F)cc2)c2ccc(F)cc2)C1` (configuration not stated) had a melting point of 44 to 46 °C.

As to `ClCCCSc1nnnn1-c1ccccc1`, the melting point fell in the range of 33 to 34 °C.

Compound `COC(=O)C1CN1C(c1ccccc1)(c1ccccc1)c1ccccc1` (configuration not stated) yielded a melting point of 127 to 128 °C.

`CCCCc1oc2ccccc2c1C(OC)c1cc(I)c(OCCN(CC)CC)c(I)c1` (configuration not stated) gave a melting point of 96 to 98 °C.

Consider `O=Cc1ccc(C=CC(=O)N2CCc3c([nH]c4ccccc34)C2c2ccc3c(c2)OCO3)cc1` (configuration not stated), for which the melting point is 208 °C.

`CCCCCCCCc1c(C)nc2cc(C)nn2c1O` showed a melting point of 199 °C.

On to `O=C(NC1CN(C(C(=O)O)c2ccc(OC(=O)c3ccccc3)cc2)C1=O)C(=NOC(=O)c1ccccc1)c1ccccc1` (configuration not stated), for which the melting point was 119 to 123 °C.

Compound `COc1cccc(C(=O)Nc2ccc3c(c2)CCCC3=O)c1` displayed a melting point of 142 to 143 °C.

`N#CCCC(=O)c1cccc(Cl)c1` gave a melting point of 49 to 51 °C.

For `COc1ccc2[nH]cc(CCCN(C3CCC3)C3COc4c(F)ccc(C(N)=O)c4C3)c2c1` (configuration not stated), the melting point lay in the range of 151 to 158 °C.

As for `O=c1ccn([C@@H]2C[C@H](O)[C@@H](O)[C@H]2O)cc1` (racemic), the melting point is 186 to 188 °C.

Turning to `O=C(O)C1CCN(c2nnc(NCc3ccc4c(c3)OCO4)c3cnccc23)CC1`, the melting point fell in the range of 205 to 206 °C.

`CN(CCc1ccc(Nc2ncc3c(n2)-c2ccccc2C(c2ccc(Cl)c(Cl)c2)C3)cc1)C1CCCCC1` (configuration not stated) showed a melting point of 130 to 131 °C.

`O=C1O[C@@H](c2ccc(F)cc2)[C@@H](Cc2ccc(C(F)(F)F)cc2)N1Cc1cccc2ccccc12` (racemic) gave a melting point of 136 to 137 °C.

As to `CCC(=O)OCOC(=O)C1=C(C)N(COC)C(C)=C(C(=O)O)[C@@H]1c1cccc([N+](=O)[O-])c1`, the melting point was in the range of 54 to 56 °C.

As to `COc1cc(Nc2nsc(-c3ccccc3)n2)ccc1-c1cnco1`, the melting point lay within 260 to 261 °C.

`CCCCCCCCCCCCCCOc1cccc(CBr)c1CBr` yielded a melting point of 55.7 to 56.5 °C.

The compound `CCOC(=O)C1C2C1S(=O)(=O)CC2(N)C(=O)OCC` (configuration not stated) had a melting point of 80 to 83 °C.

`CCCCNC(=O)NC1CCNCC1` had a melting point of 132 to 134 °C.

On to `CCCc1c(C(=O)NCc2ccc3c(Br)c(OCc4nnn[nH]4)ccc3c2)cnn1-c1ccccc1`, for which the melting point lay within 219 to 220 °C.

`CCCn1cc(-c2nc(C#N)c(N)nc2-c2ccccc2)ccc1=O` registered a melting point of 180 to 183 °C.

Regarding `CCC1c2cccn2-c2ccccc2N1S(=O)(=O)c1ccc(OC)c(C)c1` (configuration not stated), the melting point fell in the range of 124 to 126 °C.

For `CC(C)C#Cc1c(C#N)nn(-c2c(Cl)cc(C(F)(F)F)cc2Cl)c1N`, the melting point was 210 to 212 °C.

`CCCc1cccc2c(/C=C(\C)C(=O)O)cc(OC)c(OCOC)c12` yielded a melting point of 67 to 68 °C.

On to `CCOC(=O)CS(=O)(=O)Cl`, for which the melting point was in the range of 74 to 77 °C.

`Nc1ccc(S(=O)(=O)N2C=CC(CCO)Sc3ccccc32)cc1` (configuration not stated) yielded a melting point of 145 to 148 °C.

The compound `O=C(CCl)NC[C@@H]1CN2C(=O)C[C@H]2O1` (racemic) returned a melting point of 65 to 66.4 °C.

`Cc1oc(-c2ccco2)nc1COc1ccc(CON=C(CCC(=O)O)c2ccccc2)cc1` displayed a melting point of 124 to 125 °C.

Take `O=C(O)C1Oc2cc3onc(-c4ccccc4)c3c(Cl)c2O1` (configuration not stated): the melting point amounted to 102 °C.

`O=C(O)c1cn(CCCO)c(=O)c2cc(Cl)ccc12` had a melting point of 193 °C.

For `CCCCSc1c2c(=O)n(C)c(=O)n(CC(C)C)c2cn1Cc1cccc2ccccc12`, the melting point was in the range of 92 to 94 °C.

In turn, `COC(=O)c1cnc(S)n1C1CCCC2CCCCC21` (configuration not stated) showed a melting point of 84 to 86 °C.

For `CC(C)C(c1ccc2ncc(=O)[nH]c2c1)n1ccnc1` (configuration not stated), the melting point came to 246 °C.

`CCOC(=O)c1cc(=O)c(O)c(-c2ccc(Cl)cc2)o1` came in with a melting point of 157 to 159 °C.

`CC1CC(=O)N(c2ccccn2)N=C1c1ccc(OC2CCN(C(=O)OC(C)(C)C)CC2)cc1` (configuration not stated) had a melting point of 164 to 166 °C.

Turning to `COc1ccc(C=CC(=O)CCCCc2ccccc2)cc1O`, the melting point was 70 to 75 °C.

`CN1C(=O)Cc2cc(Br)cnc21`: the melting point is 149 °C.

`COCCc1nc2c(N)nc3ccccc3c2n1CCC(=O)N1CCOCC1` showed a melting point of 125 to 126 °C.

`CC(Cc1ccc(Cl)cc1Cl)NC(=O)c1cn(C)nc1C(F)F` (configuration not stated) had a melting point of 157 °C.

For `COC(=O)CC[C@H](NC(=O)OC(C)(C)C)C(=O)O`, the melting point was in the range of 74 to 77 °C.

`Cc1ccc(-c2ccc(C(=O)Nc3ccc4nc(CN5CCCC5)ccc4c3)cn2)cc1` came in with a melting point of 207 to 209 °C.

`CCOC(=O)c1ccc(NC(=O)C(C)C)c(N)c1` showed a melting point of 147 to 149 °C.

`Cc1cc(OCc2coc(C=Cc3ccc(OC(F)F)cc3)n2)ccc1COCCn1ccnn1` yielded a melting point of 119 to 120 °C.

The compound `CCCCCCCCCCCCCCOC(=O)n1cc(-c2ccccc2)nc1O` gave a melting point of 166 to 171 °C.

For `O=C(C1CC1)N1CCCc2oc(-c3ccccc3)cc2C1`, the melting point lay in the range of 108 to 110 °C.

In turn, `C[C@H]1c2cc(F)ccc2-c2ccc(F)cc2N1S(=O)(=O)c1ccc(O)cc1` registered a melting point of 194 to 196 °C.

`C/C(=C(\C#N)C(N)=S)N1CCC(Cc2ccccc2)CC1` showed a melting point of 151 to 154 °C.

For the compound `CCCCOCCCNC(=O)c1cnc(C(=O)NCC(=O)OCc2ccccc2)c(OC)c1`, the melting point was 97 to 99 °C.

`O=C(O)c1cnn(CCCCN2CCN(c3ncccn3)CC2)c1` displayed a melting point of 104 to 105 °C.

With `CCOc1ccc(C(=O)N(CC)CC)c(OCC)c1`, the melting point lay in the range of 45 to 56 °C.

`COC(C)c1ccc(OCCCN2CCC(c3noc4cc(F)ccc34)CC2)c(O)c1` (configuration not stated) had a melting point of 98 to 100 °C.

For the compound `CC(=O)Nc1ccc(OC(C)(C)c2nc3ccccc3s2)cc1`, the melting point lay in the range of 149 to 150 °C.

The compound `COC(=O)c1cc(C#N)cc2c1OC(c1ccccc1)(c1ccccc1)O2` registered a melting point of 141 °C.

`COC(=O)C(C)CNc1nc2ccccc2o1` (configuration not stated) registered a melting point of 89 to 90 °C.

The compound `CC(C)C[C@@H](C(=O)N1CCN(C(c2ccc(F)cc2)c2ccc(F)cc2)CC1)N(Cc1ccc(C(C)(C)C)cc1)Cc1ccc(C(C)(C)C)cc1` had a melting point of 78 to 86 °C.

For the compound `Cc1ccc2c3c(ccc2n1)OC[C@H](CN1CCN(c2cccc(C)c2C)CC1)O3`, the melting point lay within 112 to 113 °C.

Compound `Cc1cc(C)n(C(=O)c2cn3c(C)csc3n2)n1` registered a melting point of 172 to 176 °C.

Compound `CCC(CC)O[C@@H]1C=C(C(=O)O)C[C@H](CC(O)CN=[N+]=[N-])[C@H]1NC(C)=O` (some centres not stated) registered a melting point of 126 to 127 °C.

In turn, `O=C(O)c1ccc(CNC(=O)C2Cc3ccccc3N2S(=O)(=O)c2ccc(-c3ccc(F)cc3Cl)cc2)cc1` (configuration not stated) came in with a melting point of 111 to 124 °C.

In the case of `Cc1ccc2c(c1)S(=O)(=O)N=CN2C1CC1`, the melting point fell in the range of 192 to 195 °C.

`O=[N+]([O-])c1cc(C2=NOC(c3cc(C(F)(F)F)cc(C(F)(F)F)c3)(C(F)(F)F)C2)ccc1-n1cnnn1` (configuration not stated): the melting point lay in the range of 173 to 175 °C.

Consider `CC(C(=O)O)c1cccc(OCCC(=O)O)c1` (configuration not stated), for which the melting point is 144 to 146 °C.

Regarding `COc1cccc(CC(=O)O)c1OCCCc1cn(-c2ccc(NC(C)=O)cn2)nc1C(C)C`, the melting point lay in the range of 158 to 159 °C.

With `CC(C)OCCOc1ccc(-c2ccc3c(c2)C=C(C(=O)Nc2ccc(CN(C)C4CCOCC4)cc2)CCS3(=O)=O)cc1`, the melting point was in the range of 214 to 215 °C.

`CC(=O)NCc1ccc(CN2CCN(c3ccc(Cl)cn3)CC2)cc1` displayed a melting point of 155 to 156 °C.

As for `CSc1nc(-c2ccc(Cl)cc2)c(CCC(=O)O)o1`, the melting point lay in the range of 183 to 184 °C.

Turning to `CCOC(C#N)NC(=O)c1ccccc1` (configuration not stated), the melting point was in the range of 107 to 110 °C.

On to `CCOC(=O)c1c(C(F)(F)F)cc(C(F)(F)F)nc1N`, for which the melting point lay within 84 to 86 °C.

For the compound `Cn1nc(N)nc1NCCCOc1cccc(CNCC(F)(F)F)c1`, the melting point was 62 to 64 °C.

Regarding `Cc1c(-c2ccc(OC3CCCC3)cc2)n(Cc2ccc(OCCBr)cc2)c2ccc(OCc3ccccc3)cc12`, the melting point lay within 110 to 112 °C.

The compound `CN(C)C=Nc1sc(C=O)c(Cl)c1C#N` came in with a melting point of 186 °C.

For the compound `CC12CCC3c4ccc(O)cc4CCC3C1CC(O)C2=C(F)F` (configuration not stated), the melting point was 225 to 227 °C.

`O=c1c(CCCCc2ccncc2)cc2cccnc2n1-c1cccc([N+](=O)[O-])c1` registered a melting point of 169 to 170 °C.

Regarding `O=C(O)CC(=O)Nc1ccc2c(=O)[nH]c(=O)n(CCCCN3CCC(OC(c4ccccc4)c4ccccc4)CC3)c2c1`, the melting point is 230 to 232 °C.

For the compound `Cn1cc(C(=O)Nc2cnccc2-c2ccc(Cl)cc2)c(C(F)(F)F)c1`, the melting point was 178 to 180 °C.

`C=Cn1cc(C(=O)O)c(=O)c2cc(F)c(N3CCC(N)C3)nc21` (configuration not stated) had a melting point of 253 to 257 °C.

For the compound `CCCCc1nn(Cc2ccc(C#N)cc2)c2ccccc2c1=O`, the melting point amounted to 180 °C.

Compound `Nc1nc2ccccc2c2c1ncn2CCOC/C=C/c1ccccc1` gave a melting point of 184 °C.

As to `Cn1nc(C(F)(F)F)c(CS(=O)(=O)C2=NOC(C)(C)C2)c1Cl`, the melting point was in the range of 115 to 116 °C.

On to `COC(=O)Cc1ccc(OCCNC(=O)OCc2ccccc2)c(F)c1`, for which the melting point is 44 to 45 °C.
